{
  "source": "patent US7714105B2",
  "about": "“Use of fragments of oxytocin for the preparation of a pharmaceutical composition in order to create eustasis” (priority 2001, dated 2010)",
  "type_in_all_cases": "in vivo, rat",
  "key": {"male Sprague-Dawley rats [1]": {"tested_on": "male Sprague-Dawley rats", "assay": "Locomotor activity observations in open-field arena", "details": "1 mg/kg subcutaneously for five consecutive days, studied three days after end of treatment, vs saline control", "protocol": "(§1) Animals. Eight week-old male Sprague-Dawley rats (280-300 g) were obtained from B&K Universal AB, Sollentuna, Sweden.\n(§2) Experimental procedure. SEQ ID NO: 5 was dissolved in physiological saline (1 mg/ml) and administered subcutaneously to six rats at a dose of 1 mg/kg for five consecutive days. Six rats received physiological saline only as a control. Two days after the last treatment, the rats were exposed to blood pressure determination with the cuff technique. The locomotor behaviour was studied three days after the end of the treatment. The next day the animals were decapitated and blood was collected.\n(§3) Statistics. The results are presented as means ±SD. Statistical analysis was performed by means of 2-way ANOVA followed by Bonferroni's test for post hoc comparison. A Students t-test was performed. p-values of 0.05 or less were regarded as statistically significant.\nTwo identical frames of photocells were placed at two levels, 40 and 125 mm above the floor, respectively. The open-field was enclosed in a ventilated, sound-attenuating box with a Perspex top. Measurements were made in the dark and performed between 0.900-16.00 h.\nThe number of photocell beam interruptions were collected on an IBM-compatible PC computer allowing the registration of locomotor activity (all interruptions of photobeams at the lower level) and rearing (all interruptions of photobeams at the upper level). The data were subject to a square root transformation. For further details on the apparatus and the computer software used, including a schematic drawing of the equipment, see Ericson, E., Samuelsson, J., and Ahlenius, S. (1991). Photocell measurements of rat motor activity: A contribution to sensitivity and variation in behavioral observations. J Pharmacol Meth 25, 111-122. Furthermore, the peripheral activity was measured. By peripheral activity is meant that the animals are located in the corners of the arena. When the animals are frightened, they have a higher tendency to be located in the corners ie have a high peripheral activity. […]"}, "Oxytocin": {"tested_on": "Oxytocin", "assay": "Plasma oxytocin determination by radioimmunoassay", "details": "1 mg/kg s.c. for five consecutive days, trunk blood four days after end of treatment, mean ± SD, in pmol/L", "protocol": "as §1, §2, §3\nTrunk blood was collected in ice-chilled tubes, containing heparin (10 IU/ml) (Pharmacia-Upjohn, Stockholm, Sweden) and aprotinin (500 IU/ml) (Trasylol, Bayer, Germany). […]\nOxytocin was measured with a specific radioimmunoassay developed in this laboratory (Stock, S., and Uvnäs-Moberg, K. (1988). Increased plasma levels of oxytocin in response to stimulation of the sciatic and vagal nerves and in response to touch and pinch in anaesthetized rats. Acta Physiol Scand 132, 29-34.). […]"}, "Gastrin": {"tested_on": "Gastrin", "assay": "Plasma gastrin determination by immunoassay", "details": "1 mg/kg s.c. for five consecutive days, trunk blood four days after end of treatment, mean ± SD, in pmol/L", "protocol": "as §1, §2, §3\n(§4) Trunk blood was collected in ice-chilled tubes, containing heparin (10 IU/ml) (Pharmacia-Upjohn, Stockholm, Sweden) and aprotinin (500 IU/ml) (Trasylol, Bayer, Germany). The blood samples were centrifuged and plasma was removed and frozen (−20° C.).\nGastrin was immunoassayed as described by Smedh, U., and Uvnäs-Moberg, K. (1994) Intracerebroventricularly administered corticotropin-releasing factor releases somatostatin through a colinergic, vagal pathway in freely fed rats. Acta Physiol Scand 151, 241-247. […]"}, "CCK": {"tested_on": "CCK", "assay": "Plasma cholecystokinin (CCK) determination by immunoassay", "details": "1 mg/kg s.c. for five consecutive days, trunk blood four days after end of treatment, mean ± SD, in pmol/L", "protocol": "as §1, §2, §3, §4\nCCK was immunoassayed as described by Smedh and Uvnäs Moberg, supra. Plasma samples were purified with reversed-phase chromatography using C18 Waters SEP PAK cartridges. […]"}, "male Sprague-Dawley rats [2]": {"tested_on": "male Sprague-Dawley rats", "assay": "Measurement of blood pressure with tail cuff on conscious animals", "details": "1 mg/kg s.c. for five consecutive days, two days after last treatment", "protocol": "as §1, §2, §3\nBlood pressure and heart rate were measured on conscious animals by placing a cuff (Kent RTBP-002, Somedic Sales, Farsta, Sweden) on the base of the tail. The cuff was connected to a Grass 7P8 sphygmanometer and a Grass 7P8DC amplifier with a printer. The rats were habituated to the entire test procedure for 2-3 weeks before the procedure started."}},
  "note": "Ends that are not written are not given here.",
  "data": [
    {"substance": "Cys-Pro-Leu-Gly-NH2 (CPLG-NH2) [SEQ ID NO: 5]", "values": [
      {"measurement": "amount of peripheral activity", "setting": "male Sprague-Dawley rats [1]", "value": "decreased"},
      {"measurement": "amount of rearing", "setting": "male Sprague-Dawley rats [1]", "value": "significantly decreased"},
      {"measurement": "locomotor activity", "setting": "male Sprague-Dawley rats [1]", "value": "significantly decreased"},
      {"measurement": "Hormone levels in hormone treated rats (N = 6): Oxytocin", "setting": "Oxytocin", "value": "29.7 ± 7.2"},
      {"measurement": "Hormone levels in hormone treated rats (N = 6): Gastrin", "setting": "Gastrin", "value": "85 ± 19.3"},
      {"measurement": "Hormone levels in hormone treated rats (N = 6): CCK", "setting": "CCK", "value": "8.4 ± 3.5"},
      {"measurement": "Diastolic blood pressure, value in hormone treated rats (N = 6)", "setting": "male Sprague-Dawley rats [2]; mean ± SD", "value": "87.3 ± 18.9"},
      {"measurement": "Systolic blood pressure, value in hormone treated rats (N = 6)", "setting": "male Sprague-Dawley rats [2]; mean ± SD", "value": "116 ± 9.1"},
      {"measurement": "blood pressure", "setting": "male Sprague-Dawley rats [2]; vs saline control", "value": "significantly decreased"}
    ]}
  ]
}
